Results taken from article PMC6958375 (Pharmaceuticals, 2019).
“Also recorded” adds a separate entry of the source. Where two headings read alike, the source gives them in different places.

What was measured:
Bcl-2 = assay: Western blot of Bcl-2 in SUM 149 cells; format: cell-based, human; details: SUM 149, 24 h, compound at IC50
Excerpt: (§1) In order to verify if the three analogues alter the expression of some targets of NF-κB, like curcumin, western blot analysis was used. […] In line with the results of NF-κB DNA-binding activity inhibition, only Compounds 1 and 3 caused a decrease of expression of some targets in the same cell lines. In particular, in SUM 149 cells only Compound 3 caused a decreased expression of Survivin (a 55% of reduction respect to control) and Bcl-2 (a 48% of reduction respect to control), while in MDA-MB-231 cells only Compound 1 caused a reduction of IAP1 expression (a 32% of reduction with respect to the control) (Figure 8 and Figure 9).
(§2) Whole-cell lysates were obtained from breast cancer cells using RIPA buffer (Santa Cruz Biotechnology Inc., Dallas, TX, USA) and 25 μg protein was subjected to 10% SDS-PAGE and transferred to Hybond-P membranes (GE Healthcare Europe GmbH, Freiburg, Germany). Filters were incubated with primary antibodies raised against β-actin (Sigma-Aldrich Srl, Milan, Italy), Bcl-2 (Santa Cruz Biotechnology Inc., Dallas, TX, USA), XIAP (Cell Signaling Technology, Danvers, MA), Survivin (Novus Biologicals, Littleton, CO), IAP1 (Cell Signaling Technology, Danvers, MA). […]
(§3) Immunoblots were quantified by densitometry, the data were expressed as arbitrary units (protein/β-actin).

SUM 149 cells [1] = assay: Pro-oxidant effect by cell counting with NAC, SUM 149; details: for Cell Viability (%): SUM 149, cell counting, mean ± SE
Method: (§4) Pro-oxidant effects were examined by cell counting, adding N-acetyl-L-cysteine (NAC), an antioxidant molecule, 1h before compounds. Results were expressed as mean ± standard error (SE) of at least three different experiments performed in duplicate. All the chemicals were supplied by Sigma Aldrich Srl, Milan, Italy.

[2] = DPPH free radical scavenging assay; format: biochemical; details: DPPH reduction, 1 h in the dark at room temperature, absorbance 517 nm
Method: The antioxidant activity was evaluated by the DPPH stable radical method. Trolox (6-hydroxy-2,5,7,8-tetramethyl-chroman-2-carboxylic acid) curve was used as the positive control. 100 μL of sample was added to aliquots of a solution made up with DPPH (4.8 mg) in MeOH (200 mL), and the mixture was incubated in the dark, for 1 h at room temperature. The absorbance was measured using a UV-VIS spectrophotometer, at 517 nm. The results were plotted as the percentage of absorbance disappearance at 517 nm [(1-A/A0) × 100] against the amount of sample divided by the initial concentration of DPPH; lower absorbance values of reaction mixture indicate higher free radical scavenging activity. ED50 corresponds to micrograms of fraction able to consume half the amount of free radical divided by micromoles of initial DPPH. The results were expressed as antiradical capacity (ARC), which is the inverse of ED50. Each point was acquired in triplicate.

HL60 cells = assay: Cell growth assay, HL60; format: cell-based
Method: (§5) Dr. Elda Tagliabue (Molecular Targeting Unit, Department of Experimental Oncology and Molecular Medicine, Fondazione Institute of Hospitalization and Scientific Care, National Cancer Institute, Milan, Italy) kindly provided us the human breast cancer cell lines: MDA-MB-231(ATCC: HTB-26—Rockville, MD, USA) and SUM 149 (SUM149PT—Asterand Bioscience Detroit, MI). The first was cultured in RPMI-1640 and the second was cultured in DMEM/F-12 supplemented with insulin (5 μg/mL). The cells were authenticated using the short tandem repeat profiling method in their Institute. Prof. Giulio Ghersi (STEBICEF Department, University of Palermo, Italy) kindly provided us the non-tumorigenic cell line 1-7HB2 (ECACC 10081201—Cancer Research Technology, London, UK) that was cultured in DMEM low glucose supplemented with hydrocortisone (5 μg/mL) and insulin (10 μg/mL). HL60, obtained from ATCC® (CCL-240, Rockville, MD, USA), and its variant HL60R, obtained by exposure to gradually increasing concentrations of doxorubicin, were cultured in RPMI-1640. All media were supplemented with 10% heat-inactivated fetal calf serum, 2 mM L-glutamine, 100 U/mL penicillin and 100 μg/mL streptomycin (all reagents were from EuroClone S.p.A., Milan, Italy; GE Healthcare Life Sciences, Logan, UT, USA). All cell lines were cultured in a humidified atmosphere at 37 °C in 5% CO2.
(§6) The cells were seeded at 2 × 10^4 cells/well onto 96-well plates and incubated at 37 °C overnight; at time 0, the medium was replaced with fresh complete medium supplemented of compounds at the indicated concentrations. Following 72 h of treatment, 16 μL of a commercial solution obtained from Promega Corporation (Madison, WI, USA) containing 3-(4,5-dimethylthiazol- 2-yl)-5-(3-carboxy methoxyphenyl)-2-(4-sulphophenyl)-2H-tetrazolium (MTS) and phenazine ethosulfate were added. After a incubation in a humidified atmosphere at 37 °C in 5% CO2, the bioreduction of MTS dye was evaluated by measuring the absorbance of each well at 490 nm, using a microplate absorbance reader (iMark Microplate Reader; Bio-Rad Laboratories, Inc., Hercules, CA, USA). Cell growth inhibition was expressed as a percentage (mean ± SE) of the absorbance of the control cells.

Survivin = assay: Western blot of Survivin in SUM 149 cells; format: cell-based, human; details: SUM 149, 24 h, compound at IC50
Excerpt: as §1, §2, §3

MDA-MB-231 cells [3] = assay: Pro-oxidant effect by cell counting with NAC, MDA-MB-231
Method: as §4

1-7HB2 cells = assay: Cell growth assay (MTS), normal cell line 1-7HB2; format: cell-based; details: cell growth inhibition, 72 h of treatment, mean ± SE
Method: as §5, §6

SUM 149 cells [4] = assay: Cell growth assay (MTS), SUM 149; format: cell-based, human; details: 72 h of treatment, mean ± SE
Method: as §5, §6

HL60R cells = assay: Cell growth assay, multidrug resistant HL60R; format: cell-based; details: read-out: HL60 R IC50
Method: as §5, §6

NF-κB (p65 subunit) [5] = assay: NF-κB DNA-binding activity (TransAM), SUM 149 nuclear extracts; format: cell-based, human; details: SUM 149, compounds at IC50 values, 24 h of treatment
Excerpt: (§7) The DNA-binding capacity of NF-κB (p65 subunit) was defined in the nuclear extracts of SUM 149 and MDA-MB-231 cells using the TransAM NF-κB and Nuclear Extract kits (Active Motif, Carlsbad, CA, USA). The determination of binding capacity was based on a 96-well plate, on which an oligonucleotide containing the NF-κB consensus binding site was fixed. […] After addition of a horseradish peroxidase-conjugated secondary antibody, a sensitive colorimetric readout was quantified by densitometry (iMark Microplate Reader; Bio-Rad Laboratories, Inc.). The control of specificity of the assay carried out according to the indications of manufacturer’s protocol. The results were expressed as arbitrary units: one unit indicated the DNA binding capacity exerted by 2.5 μg whole cell extract from Jurkat cells/microgram of protein from the nuclear extracts. Jurkat cells, stimulated with 12-O-tetradecanoylphorbol-13-acetate and calcium ionophore, are the positive control for NF-κB p65 activation.

MDA-MB-231 cells [6] = assay: Cell growth assay (MTS), MDA-MB-231; format: cell-based, human; details: 72 h of treatment, mean ± SE
Method: as §5, §6

NF-κB (p65 subunit) [7] = assay: NF-κB DNA-binding activity (TransAM), MDA-MB-231 nuclear extracts; format: cell-based, human; details: MDA-MB-231, compounds at IC50 values, 8 h of treatment
Excerpt: as §7

IAP1 = assay: Western blot of IAP1 in MDA-MB-231 cells; format: cell-based, human; details: MDA-MB-231, 8 h, compound at IC50
Excerpt: as §1, §2, §3

[8] = acute promyelocytic leukemia HL60, cell growth assay, read-out: HL60 IC50
[9] = cell growth inhibition, read-out: SUM149 IC50 (converted)
[10] = multidrug resistant variant of HL60, cell growth assay

In the case of “4-phenylsulfanyl-(1E,6E)-1,7-bis(4-hydroxy-3-methoxyphenyl)hepta-1,6-diene-3,5-dione [Compound 3]”, the “reduction of Bcl-2 expression respect to control” value (Bcl-2) is reported as 48%, the “Cell Viability (%)” value (SUM 149 cells [1]; NAC 2 mM 1 h before compound at its IC50) is reported as 14.0 ± 4.6% and the “Cell Viability (%)” value (SUM 149 cells [1]; compound alone at its IC50 (curc 14 μM, 1 11 μM, 2 13 μM, 3 14 μM)) is reported as 34.0 ± 2.1%. The ED50 [2] was 19.2 µM, the IC50 (HL60 cells; [8]) was under 1 µM and the “reduction of Survivin expression respect to control” value (Survivin) was 55%. The “Cell Viability (%)” value (MDA-MB-231 cells [3]; MDA-MB-231, cell counting, compound alone at its IC50 (curc 25 μM, 1 18 μM, 2 20 μM, 3 15 μM), mean ± SE) was 25.6 ± 0.7%, the IC50 (1-7HB2 cells) was 12.5 ± 0.43 µM and the IC50 (SUM 149 cells [4]; [9]) was 13.5 ± 0.88 µM. The IC50 (HL60R cells; [10]) was 6.7 µM, the “NF-κB DNA-binding activity” value (NF-κB (p65 subunit) [5]) was “stronger decrease than curcumin” and the IC50 (MDA-MB-231 cells [6]; cell growth inhibition) was 15 ± 0.85 µM. The “NF-κB DNA-binding activity” value (NF-κB (p65 subunit) [7]) was “NF-κB inhibitors”.
In the case of `CC(=O)N[C@@H](CS)C(=O)O` [NAC, N-acetyl-L-cysteine], the viability at 2000 µM (SUM 149 cells [1]; Homo sapiens, SUM149, read-out: Cell Viability (%)) is reported as 100 ± 9.5% and the viability at 2000 µM (MDA-MB-231 cells [3]; Homo sapiens, MDA-MB-231, read-out: Cell Viability (%)) is reported as 87 ± 3.9%.
Compound `Cc1c(C)c2c(c(C)c1O)CCC(C)(C(=O)O)O2` (stereo not drawn) [Trolox, 6-hydroxy-2,5,7,8-tetramethyl-chroman-2-carboxylic acid, reference compound] has an ED50 [2] of 12.0 µM.
“(1E,6E)-1-(4-hydroxy-3-methoxyphenyl)-7-(3-methoxy-4-propargyloxyphenyl)hepta-1,6-diene -3,5-dione [Compound 1]” gave an IC50 (HL60 cells; [8]) of 14 µM, an IC50 (1-7HB2 cells) of 20 µM and an IC50 (SUM 149 cells [4]; [9]) of 11.2 µM. For the same compound, the IC50 (HL60R cells; [10]) was 7 µM, the IC50 (MDA-MB-231 cells [6]; cell growth inhibition) was 18 µM and the “NF-κB DNA-binding activity” value (NF-κB (p65 subunit) [7]) was “NF-κB inhibitors; also recorded: greater effect than curcumin”. For the same compound, the “reduction of IAP1 expression with respect to the control” value (IAP1) was 32%.
For `C#CCOc1ccc(/C=C/C(=O)CC(=O)/C=C/c2ccc(OCC#C)c(OC)c2)cc1OC` [Compound 2, (1E,6E)-1,7-bis(3-methoxy-4-propargyloxyphenyl)hepta-1,6-diene-3,5-dione], the IC50 (HL60 cells; [8]) was 17 µM, the “1-7HB2 IC50” value (1-7HB2 cells) was “not reached” and the IC50 (SUM 149 cells [4]; [9]) was 13.2 ± 1.59 µM. For the same compound, the IC50 (HL60R cells; [10]) was 9 µM and the IC50 (MDA-MB-231 cells [6]; cell growth inhibition) was 20 µM.
For `COc1cc(/C=C/C(=O)/C=C(O)/C=C/c2ccc(OCc3ccc(CBr)cc3)c(OC)c2)ccc1OCc1ccc(CBr)cc1` [Compound 5, (1E,6E)-1,7-bis [3-methoxy-4(4-methylbromobenzyl)oxyphenyl]hepta-1,6-diene-3,5-dione], the “1-7HB2 IC50” value (1-7HB2 cells) was “not reached”, the “SUM149 IC50” value (SUM 149 cells [4]; cell growth inhibition) was “not reached” and the “MDA-MB-231 IC50” value (MDA-MB-231 cells [6]; cell growth inhibition) was “not reached”.
For `COc1cc(/C=C/C(O)=C/C(=O)/C=C/c2ccc(OCc3ccc(CBr)cc3)c(OC)c2)ccc1O` [Compound 4, (1E,6E)-1-(4-hydroxy-3-methoxyphenyl)-7-[3-methoxy-4(4-methylbromobenzyl)oxyphenyl] hepta-1,6-diene-3,5-dione], the “1-7HB2 IC50” value (1-7HB2 cells) was “not reached”, the “SUM149 IC50” value (SUM 149 cells [4]; cell growth inhibition) was “not reached” and the “MDA-MB-231 IC50” value (MDA-MB-231 cells [6]; cell growth inhibition) was “not reached”.
In the case of `COc1cc(/C=C/C(=O)CC(=O)/C=C/c2ccc(O)c(OC)c2)ccc1O` [Curcumin, reference compound], the IC50 (HL60 cells; Homo sapiens, HL-60, read-out: HL60 IC50) is reported as 47.5 µM, the IC50 (1-7HB2 cells) is reported as 37.5 ± 0.51 µM and the IC50 (SUM 149 cells [4]; Homo sapiens, SUM149, cell growth inhibition) is reported as 14 ± 0.29 µM. The IC50 (HL60R cells; HL60R) was 40.5 µM and the IC50 (MDA-MB-231 cells [6]; Homo sapiens, MDA-MB-231, cell growth inhibition) was 25.5 ± 0.35 µM.
